Data on one compound can be found in patent publication EP2508186A1, “Phenoxazinones or phenothiazones as inhibitors of amyloid formation” (Max-Delbrück-Centrum für Molekulare Medizin, priority 2011, dated 2012).

One assay deals with T1, Aβ42 (Homo sapiens, UniProt P05067).
T1 construct: the amyloid-β 1-42 (Aβ42) peptide
The experiment in a line: SDS-PAGE (silver staining / immunoblotting) of Aβ42 aggregation products. In kind it is biochemical. How it is done:
2.2.3. O4 promotes the formation of SDS-stable, protease-resistant protein aggregates. To investigate whether 04 treatment influences the stability of amyloid structures, we analyzed compound-treated Aβ42 aggregation reactions after 48 h with SDS-PAGE and silver staining (Fig. 3a). In the absence of 04, aggregation products resolved to monomers (-4 kDa), small oligomers (-10-12 and 14-16 kDa), medium-size oligomers (-100-150 kDa) and large aggregates (>250 kDa) in SDS gels, supporting previously published studies that Aβ42 monomers in vitro assemble into a heterogenous mixture of low and high molecular weight aggregate species (Bitan, 2003). However, in the presence of 04 an altered distribution of SDS-stable Aβ42 aggregate species was observed.
The effect of 04 on early aggregate species was also visible when treated and untreated Aβ42 preparations containing mainly small oligomers and protofibrils were analyzed after 24 h by SDS-PAGE and immunoblotting.
To investigate whether 04 treatment influences Aβ42 aggregate formation cell culture media were also analyzed by SDS-PAGE and silver staining (Fig. 9b). In-untreated samples, a relatively large amount of Aβ42 monomers (-4 kDa) and small oligomers (-12 kDa) was detected, while in 04 treated samples the concentration of these Aβ42 species was diminished.
(In general: A western blot detects proteins with antibodies after separation by electrophoresis.)

Assay [1] deals with T2, A11-reactive amyloid oligomers (Homo sapiens, UniProt P05067).
T2 construct: the amyloid-β 1-42 (Aβ42) peptide
T2 sequence (P05067 672-713 limits assumed): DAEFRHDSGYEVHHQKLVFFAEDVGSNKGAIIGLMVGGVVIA
The experiment in a line: Dot blot assay with conformation-specific antibody A11. In kind it is biochemical. Particulars: Aβ42 15 µM, 48 h at 37°C, 04 at 1:1 or 5:1 molar ratio. How it is done: Finally, we examined the effect of 04 on potentially toxic amyloid oligomers that are recognized by the conformation-specific antibody A11 (Kayed, 2003). Soluble Aβ42 peptides were incubated in the presence and absence of 04 for 48 h at 37°C and the resulting aggregate species were analyzed by dot blot assays.

Each structure is given as a SMILES string.

T1 sequence (P05067 672-713 limits assumed): as above

Consider `O=c1cc2oc3cc(O)c(-c4ccc(O)cc4O)cc3nc-2cc1-c1ccc(O)cc1O` [Compound 04, 2,8-bis-(2,4-dihydroxyphenyl)-7-hydroxy-phenoxazin-3-one], for which the “distribution of SDS-stable Aβ42 aggregate species (SDS-PAGE, silver staining)” value on Aβ42 (Aβ42 15 µM, 04 1.5-150 µM, 48 h, 37°C, cell-free) is “the relative amount of medium-size, SDS-stable oligomers and large aggregates was increased, while the amount of monomers and small oligomers was decreased”. For the same compound, the “Aβ42 monomers and small oligomers in cell culture media (SDS-PAGE, silver staining)” value on Aβ42 (SH-SY5Y culture media, Aβ42 5 µM, 04 5 µM or 25 µM, 48 h) is on record as “diminished”. Further, at Aβ42 (preformed Aβ42 oligomers 110 µM, 04 30, 100 and 300 µM, 24 h), the “assembly of higher molecular weight Aβ42 aggregates (SDS-PAGE, immunoblotting)” value is given as “stimulates the assembly of SDS-stable, higher molecular weight Aβ42 aggregates in a concentration-dependent manner”. Moreover, in assay [1], the A11-reactive oligomers entry was “detected in the absence but not in the presence of the chemical compound”.
